This test relates to M. tuberculosis. Put plainly: Extracellular activity against M. tuberculosis in cholesterol media (Alamar Blue reduction assay). The format is cell-based, Mycobacterium tuberculosis. To be noted: Mycobacterium tuberculosis, 240 h, 7H12-Cholesterol media, 10 days; read-out: Cholesterol broth: alamar blue--EC50.

Molecules are shown by their SMILES.

Regarding `Cc1nonc1CC(=O)N1CCC(c2nc(C3CCOCC3)no2)CC1` [Compound 76, 2-(4-methyl-1,2,5-oxadiazol-3-yl)-1-(4-(3-(tetrahydro-2H-pyran-4-yl)-1,2,4-oxadiazol-5-yl)piperidin-1-yl)ethan-1-one], the EC50 is above 10000 nM.
With `Cc1nonc1CC(=O)N1CCC(c2noc(C34CCC(CC3)C4)n2)CC1` [Compound 77, 1-(4-(5-(bicyclo[2.2.1]heptan-1-yl)-1,2,4-oxadiazol-3-yl)piperidin-1-yl)-2-(4-methyl-1,2,5-oxadiazol-3-yl)ethan-1-one] the figure was above 25000 nM; with `Cc1nonc1CC(=O)N1CCC(c2nc(C34CCC(CC3)C4)no2)CC1` [Compound 78, 1-(4-(3-(bicyclo[2.2.1]heptan-1-yl)-1,2,4-oxadiazol-5-yl)piperidin-1-yl)-2-(4-methyl-1,2,5-oxadiazol-3-yl)ethan-1-one], 3760 nM.
With `Cc1nonc1CC(=O)N1CCC(n2ccc(-c3ccccc3)n2)CC1` [Compound 79, 2-(4-methyl-1,2,5-oxadiazol-3-yl)-1-(4-(3-phenyl-1H-pyrazol-1-yl)piperidin-1-yl)ethan-1-one] the figure was above 10000 nM; with `Cc1nonc1CC(=O)N1CCC(n2nnc(-c3ccccc3)n2)CC1` [Compound 80, 2-(4-methyl-1,2,5-oxadiazol-3-yl)-1-(4-(5-phenyl-2H-tetrazol-2-yl)piperidin-1-yl)ethan-1-one, reference compound], 1580 nM; with `Cc1nnn(C2CCN(C(=O)Cc3nonc3C)CC2)n1` [Compound 81, 2-(4-methyl-1,2,5-oxadiazol-3-yl)-1-(4-(5-methyl-2H-tetrazol-2-yl)piperidin-1-yl)ethan-1-one], above 10000 nM.
The figure for `Cc1noc(C2CCN(C(=O)Cc3nonc3C)CC2)n1` [Compound 82, 1-(4-(3-methyl-1,2,4-oxadiazol-5-yl)piperidin-1-yl)-2-(4-methyl-1,2,5-oxadiazol-3-yl)ethan-1-one] is above 10000 nM; for `Cc1nonc1CC(=O)N1CCC(c2nc(C(C)C)no2)CC1` [Compound 83, 1-(4-(3-isopropyl-1,2,4-oxadiazol-5-yl)piperidin-1-yl)-2-(4-methyl-1,2,5-oxadiazol-3-yl)ethan-1-one] it is above 10000 nM.
Take `Cc1nonc1CC(=O)N1CCC(c2nc(C3(C)CCCCC3)no2)CC1` [Compound 84, 2-(4-methyl-1,2,5-oxadiazol-3-yl)-1-(4-(3-(1-methylcyclohexyl)-1,2,4-oxadiazol-5-yl)piperidin-1-yl)ethan-1-one]: the EC50 stood at 2130 nM.
With `Cc1nonc1CC(=O)N1CCC(c2nc(C3(C)COC3)no2)CC1` [Compound 85, 2-(4-methyl-1,2,5-oxadiazol-3-yl)-1-(4-(3-(3-methyloxetan-3-yl)-1,2,4-oxadiazol-5-yl)piperidin-1-yl)ethan-1-one] the figure was above 10000 nM.
For `Cc1nonc1CC(=O)N1CCC(c2nc(C3CC3(C)C)no2)CC1` (stereo not shown) [Compound 86, 1-(4-(3-(2,2-dimethylcyclopropyl)-1,2,4-oxadiazol-5-yl)piperidin-1-yl)-2-(4-methyl-1,2,5-oxadiazol-3-yl)ethan-1-one], the EC50 stood at 1810 nM.
The figure for `Cc1nonc1CC(=O)N1CCC(c2nc(C3CCC(C)(C)C3)no2)CC1` (stereo not shown) [Compound 87, 1-(4-(3-(3,3-dimethylcyclopentyl)-1,2,4-oxadiazol-5-yl)piperidin-1-yl)-2-(4-methyl-1,2,5-oxadiazol-3-yl)ethan-1-one] is 249 nM; for `Cc1nonc1CC(=O)N1CCC(c2nc(C3CCC(C)(C)CC3)no2)CC1` [Compound 88, 1-(4-(3-(4,4-dimethylcyclohexyl)-1,2,4-oxadiazol-5-yl)piperidin-1-yl)-2-(4-methyl-1,2,5-oxadiazol-3-yl)ethan-1-one] it is 181 nM.
With `Cc1nonc1CC(=O)N1CCC(c2nc(C3CCCC(C)(C)C3)no2)CC1` (stereo not shown) [Compound 89, 1-(4-(3-(3,3-dimethylcyclohexyl)-1,2,4-oxadiazol-5-yl)piperidin-1-yl)-2-(4-methyl-1,2,5-oxadiazol-3-yl)ethan-1-one] the figure was 512 nM.
Take `Cc1nonc1CC(=O)N1CCC(c2noc(C34CC(C)(C3)C4)n2)CC1` [Compound 90, 2-(4-methyl-1,2,5-oxadiazol-3-yl)-1-(4-(5-(3-methylbicyclo[1.1.1]pentan-1-yl)-1,2,4-oxadiazol-3-yl)piperidin-1-yl)ethan-1-one]: the EC50 was 2050 nM.
The figure for `COC(C)c1noc(C2CCN(C(=O)Cc3nonc3C)CC2)n1` (stereo not shown) [Compound 91, 1-(4-(3-(1-methoxyethyl)-1,2,4-oxadiazol-5-yl)piperidin-1-yl)-2-(4-methyl-1,2,5-oxadiazol-3-yl)ethan-1-one] is above 10000 nM; for `COCc1noc(C2CCN(C(=O)Cc3nonc3C)CC2)n1` [Compound 92, 1-(4-(3-(methoxymethyl)-1,2,4-oxadiazol-5-yl)piperidin-1-yl)-2-(4-methyl-1,2,5-oxadiazol-3-yl)ethan-1-one] it is above 10000 nM; for `Cc1nonc1CC(=O)N1CCC(c2nc(-c3ccc(Cl)cc3Cl)no2)CC1` [Compound 94, 1-(4-(3-(2,4-dichlorophenyl)-1,2,4-oxadiazol-5-yl)piperidin-1-yl)-2-(4-methyl-1,2,5-oxadiazol-3-yl)ethan-1-one] it is 146 nM.
With `Cc1nonc1CC(=O)N1CCC(c2nc(-c3ccc(Cl)c(Cl)c3)no2)CC1` [Compound 95, 1-(4-(3-(3,4-dichlorophenyl)-1,2,4-oxadiazol-5-yl)piperidin-1-yl)-2-(4-methyl-1,2,5-oxadiazol-3-yl)ethan-1-one] the figure was 64.4 nM; with `Cc1nonc1CC(=O)N1CCC(O)(c2nc(-c3ccc(Cl)c(Cl)c3)no2)CC1` [Compound 96, 1-(4-(3-(3,4-dichlorophenyl)-1,2,4-oxadiazol-5-yl)-4-hydroxypiperidin-1-yl)-2-(4-methyl-1,2,5-oxadiazol-3-yl)ethan-1-one], 610 nM.
With `Cc1nonc1CC(=O)N1CCC(n2nnc(-c3ccc(Cl)cc3)n2)CC1` [Compound 97, 1-(4-(5-(4-chlorophenyl)-2H-tetrazol-2-yl)piperidin-1-yl)-2-(4-methyl-1,2,5-oxadiazol-3-yl)ethan-1-one] the figure was 149 nM; with `Cc1nonc1CC(=O)N1CCC(c2nc(-c3ccc(Cl)cc3)no2)CC1` [Compound 98, 1-(4-(3-(4-chlorophenyl)-1,2,4-oxadiazol-5-yl)piperidin-1-yl)-2-(4-methyl-1,2,5-oxadiazol-3-yl)ethan-1-one], 114 nM; with `Cc1nonc1CC(=O)N1CCC(c2nc(-c3cccc(Cl)c3)no2)CC1` [Compound 99, 1-(4-(3-(3-chlorophenyl)-1,2,4-oxadiazol-5-yl)piperidin-1-yl)-2-(4-methyl-1,2,5-oxadiazol-3-yl)ethan-1-one], 530 nM.
Regarding `Cc1nonc1CC(=O)N1CCC(c2nc(C3CCC(C(F)(F)F)CC3)no2)CC1` (stereo not shown) [Compound 100, 2-(4-methyl-1,2,5-oxadiazol-3-yl)-1-(4-(3-(4-(trifluoromethyl)cyclohexyl)-1,2,4-oxadiazol-5-yl)piperidin-1-yl)ethan-1-one], the EC50 came to 688 nM.
The figure for `Cc1nonc1CC(=O)N1CCC(c2nc(-c3ccc(Cl)c(OC(F)(F)F)c3)no2)CC1` [Compound 101] is 731 nM.

One may read the EC50 as the concentration at which the effect is half-maximal.

The values are drawn from US20260048047A1, “SMALL-MOLECULE ACTIVATORS OF MYCOBACTERIUM TUBERCULOSIS ADENYLYL CYCLASE” (priority 2022, published 2026).
